US20210355106A1, “NEW AMINO-PYRIMIDONYL-PIPERIDINYL DERIVATIVES, A PROCESS FOR THEIR PREPARATION AND PHARMACEUTICAL COMPOSITIONS CONTAINING THEM” (LES LABORATOIRES SERVIER, priority 2018, published 2021)

Tests used:
USP7 = target: T1, USP7 (Homo sapiens, UniProt Q93009, C315A); assay: Inhibition of USP7 by Fluorescence Intensity (FLINT) readings, Ubiquitin-Rhodamine-110 substrate; format: biochemical; settings: 0.25 nM His-His-USP7 (aa208-560), 60 minutes at 30° C. preincubation; Ki determined from IC50 according to Cer et al.
T1 construct: 0.25 nM His-His-USP7 (aa208-560, |C315A|) was incubated with compound; His-His (N)
T1 sequence (Q93009 208-560 C315A): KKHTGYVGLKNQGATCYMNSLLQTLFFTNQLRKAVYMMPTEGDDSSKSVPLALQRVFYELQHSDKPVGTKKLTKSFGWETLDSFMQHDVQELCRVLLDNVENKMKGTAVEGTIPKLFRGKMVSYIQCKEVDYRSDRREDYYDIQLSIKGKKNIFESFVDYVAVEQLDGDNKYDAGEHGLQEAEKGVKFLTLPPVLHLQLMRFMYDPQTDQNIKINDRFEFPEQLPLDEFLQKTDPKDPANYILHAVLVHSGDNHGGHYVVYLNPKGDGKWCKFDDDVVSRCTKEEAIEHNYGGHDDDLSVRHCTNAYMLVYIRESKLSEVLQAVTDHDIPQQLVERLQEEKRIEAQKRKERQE
In short: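 Kinetic rate of Rhodamine-110 release from ubiquitin substrate (50 nM or 4 μM), read every 3 min for 21 min, after 60 min, 30 °C preincubation of 0.25 nM USP7 catalytic domain C315A with compound. Bicine pH 8.0 buffer, 10% DMSO; 11-point IC50 vs DMSO and no-enzyme controls, converted to Ki.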

[1] = system: Z138 mantle cell lymphoma tumour cell lines; assay: In vitro cytotoxicity, MTT assay; format: cell-based; settings: Z138 cells, exposed to the test compounds for 96 hours
In short: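 MTT viability read-out: after 96 hours of compound treatment, Z138 mantle cell lymphoma cells received MTT for 4 hours, and formazan production was quantified by absorbance at 540 nm.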

Ki (USP7) [nM]	Compound	IC50 ([1]; Homo sapiens, Z-138) [nM]	IC50 [1] [nM]
5.58	COc1cc(Oc2ncn(C[C@@]3(O)CCN(C(=O)[C@@H]4CCN(C(=O)c5sc(-c6ccc(C)nc6)nc5C)C[C@H]4c4ccccc4)CC3(F)F)c(=O)c2N)ccc1F [Example 179]	1.34	
13.6	Cn1c(C(=O)N2CC[C@@H](C(=O)N3CCC(O)(Cn4cnc(Oc5ccc(F)cc5)c(N)c4=O)CC3)[C@H](c3ccccc3)C2)cc2ccccc21 [Example 37, 5-amino-6-(4-fluorophenoxy)-3-({4-hydroxy-1-[(3R,4R)-1-(1-methyl-1H-indole-2-carbonyl)-3-phenylpiperidine-4-carbonyl]piperidin-4-yl}methyl)pyrimidin-4(3H)-one]	6.66	
7.46	COc1cc(Cl)cc(Oc2ncn(CC3(O)CCN(C(=O)[C@@H]4CCN(C(=O)c5sc(-c6ccc(C)nc6)nc5C)C[C@H]4c4ccccc4)CC3)c(=O)c2N)c1 [Example 23, 5-amino-6-(3-chloro-5-methoxyphenoxy)-3-((4-hydroxy-1-((3R,4R)-1-[4-methyl-2-(6-methylpyridin-3-yl)-1,3-thiazole-5-carbonyl]-3-phenylpiperidine-4-carbonyl}piperidin-4-yl)methyl]pyrimidin-4(3/I)-one]	2.77	
36.4	COc1cc(Oc2ncn(C[C@@]3(O)CCN(C(=O)[C@@H]4CCN(Cc5cnccn5)C[C@H]4c4ccccc4)CC3(F)F)c(=O)c2N)ccc1F [Example 213, 5-amino-3-[[(4S)-3,3-difluoro-4-hydroxy-1-[(3R,4R)-3-phenyl-1-(pyrazin-2-ylmethyl)piperidine-4-carbonyl]-4-piperidyl]methyl]-6-(4-fluoro-3-methoxy-phenoxy)pyrimidin-4-one]	15.6	
4.68	Cc1ccc(-c2cc(F)cc(C(=O)N3CC[C@@H](C(=O)N4CCC(O)(Cn5cnc(Oc6ccc(F)cc6)c(N)c5=O)CC4)[C@H](c4ccccc4)C3)c2)cn1 [Example 121]	6.4	
2.9	Cc1ccc(-c2nc(C)c(C(=O)N3CC[C@@H](C(=O)N4CCC(O)(Cn5cnc(Oc6ccccc6)c(N)c5=O)CC4)[C@H](c4ccccc4)C3)s2)cn1 [Example 46, 5-amino-3-[(4-hydroxy-1-((3R,4R)-1-[4-methyl-2-(6-methylpyridin-3-yl)-1,3-thiazole-5-carbonyl]-3-phenylpiperidine-4-carbonyl)piperidin-4-yl)methyl)-6-phenoxypyrimidin-4(3H)-one]	3.1	
4.1	Cc1nc(-c2ccc(C(F)(F)F)nc2)sc1C(=O)N1CC[C@@H](C(=O)N2CCC(O)(Cn3cnc(Oc4ccc(F)cc4)c(N)c3=O)CC2)[C@H](c2ccccc2)C1 [Example 42, 5-amino-6-(4-fluorophenoxy)-3-({4-hydroxy-1-{(3R,4R)-1-{4-methyl-2-[6-(trifluromethyl)pyridin-3-yl]-1,3-thiazole-5carbonyl)-3-phenylpiperidine-4-carbonyl]piperidin-4-yl}methyl)pyrimidin-4(3H)-one]		3.66
